Source: patent publication US11149018B2, “Substituted N-arylethyl-2-aminoquinoline-4-carboxamides and use thereof” (Bayer Aktiengesellschaft, priority 2017, dated 2021)

How the values were obtained:
[1] = tested on: C57Bl6J mice with DQ12 silica-induced pulmonary fibrosis; experiment: Silica-induced pulmonary fibrosis in mice, therapeutic chronic 30-day study; type: in vivo, mouse; conditions: for Hydroxyproline [ng/lung]: day 10-30, mean ± SEM
Description: B-23. Silica-Induced Pulmonary Fibrosis in Mice: Therapeutic Chronic 30-Day Study with FP Antagonists
Adult female C57Bl6J mice (Charles River Laboratories, Sulzfeld, Germany) having a weight of 18-20 g were anaesthetized in a chamber with isoflurane (3% v/v) and treated intratracheally with 2.5 mg of crystalline DQ12 silica dissolved in 70 μL of sterile phosphate-buffered saline. Untreated control mice received the same volume of phosphate-buffered saline. […] 30 days after the installation of silica, the animals were anaesthetized with an intraperitoneal injection of ketamine/medetomidine (50 mg/kg and 0.33 mg/kg) combined with a subcutaneous injection of Temgesic (0.06 mg/kg) and sacrifice by exsanguination. Thereafter, the trachea was cannulated, and the animals' lungs were lavaged three times with 0.5 ml of ice-cold phosphate-buffered saline. Thereafter, the lungs were removed, weighed and shock-frozen in dry ice. […] The data are mean values±SEM of 8-12 animals per group. The statistical analysis was conducted with the unpaired Student's t test. P values<0.05 were considered to be significant.

[2] = tested on: C57BL/6J mice with CCl4-induced hepatic fibrosis; experiment: Carbon tetrachloride (CCl4)-induced hepatic fibrosis in mice; type: in vivo, mouse
Description: B-21. Carbon Tetrachloride (CCl4)-Induced Hepatic Fibrosis in Mice
Sixty C57BL/6J mice (Charles River, male, 8 weeks old) were randomized and divided equally into 4 groups (15 mice per group). Group 1 served as the untreated healthy control group, whereas groups 2-4 served as mice suffering from hepatic fibrosis. Hepatic fibrosis was induced by intraperitoneal injection of 50 μl CCl4/olive oil suspension (CCl4+olive oil, 1+9 v/v) three times per week (Monday, Wednesday and Friday) over the entire study period. […] The CCl4-treated mice of group 4 served as group treated with a compound of the formula (I). The oral treatment of group 3 with the vehicle solution and of group 4 with a compound of the formula (I) started on day 1 and was continued twice daily (in the morning and evening) over the complete study period of two weeks. At the end of the study, all animals were sacrificed under anaesthetic, and the livers were removed fixed in 4% buffered formaldehyde solution for the subsequent histological processing and analysis. For this purpose, liver samples for all animals were embedded in paraffin and 3 μm-thick paraffin sections were produced. […] The sections were scanned with 20× enlargement and a light intensity of 4.8 V. The images thus produced were then converted to JPG format, and the red-stained area was quantified by means of ImageJ software (National Institute of Health, USA). […]

[3] = tested on: C57Bl6J mice with unilateral ureteral obstruction; experiment: Unilateral ureteral obstruction (UUO) in mice (renal fibrosis); type: in vivo, mouse; conditions: 10 days after UUO, mean ± SD, n=10; for SR/FG positive area [%]: SiriusRed/FastGreen collagen staining of kidney; for αSMA positive area [%]: immunohistochemistry of kidney; for Gene expression CTGF / Gene expression Col1α1 / Gene expression Col3α1 / Gene expression Col4α1 / Gene expression IL1-β / Gene expression IL-6 / Gene expression KC / Gene expression MCP-1 / Gene expression TGF-β / Gene expression αSMA: kidney, % of placebo group (=100%)
From the text: B-22. Animal Model of Unilateral Ureteral Obstruction (UUO) in Mice (Renal Fibrosis) Unilateral ureteral obstruction in mice and rats is a widely used animal model for interstitial renal fibrosis (Chevalier et al., Kidney Int. 2009, 75, 1145-1152). Permanent occlusion of the ureter leads, as a result of the sustained accumulation of the urine, to increased inflammatory cell infiltration into the interstitium, to tubular cell death and to irreversible loss of the renal parenchyma. After 5 to 7 days, owing to the elevated deposition of extracellular matrix proteins, interstitial fibrosis arises. Adult male […] mice (Charles River Laboratories, Sulzfeld, Germany) having a weight of 20-22 g were anaesthetized with isoflurane, then, after opening up the abdominal cavity, a ureter was ligated and severed beneath the ligature. In the sham-operated control mice (SHAM), the abdominal cavity was merely opened up, but the ureter was not ligated. […] 10 days after the UUO, the animals were anaesthetized and sacrificed by exsanguination. Thereafter, the kidneys were removed and renal fibrosis was assessed on the basis of the expression of pro-inflammatory and pro-fibrotic markers, and a histological assessment of the renal tissue.

[4] = tested on: occlusion of the cerebral artery; conditions: treatment with the FP antagonist after occlusion of the cerebral artery; cited from earlier work
FP receptor [5] = target: T1, FP receptor (Homo sapiens (Human), UniProt P43088); conditions: least selective of the prostanoid receptors; cited from earlier work
T1 sequence (P43088 whole entry): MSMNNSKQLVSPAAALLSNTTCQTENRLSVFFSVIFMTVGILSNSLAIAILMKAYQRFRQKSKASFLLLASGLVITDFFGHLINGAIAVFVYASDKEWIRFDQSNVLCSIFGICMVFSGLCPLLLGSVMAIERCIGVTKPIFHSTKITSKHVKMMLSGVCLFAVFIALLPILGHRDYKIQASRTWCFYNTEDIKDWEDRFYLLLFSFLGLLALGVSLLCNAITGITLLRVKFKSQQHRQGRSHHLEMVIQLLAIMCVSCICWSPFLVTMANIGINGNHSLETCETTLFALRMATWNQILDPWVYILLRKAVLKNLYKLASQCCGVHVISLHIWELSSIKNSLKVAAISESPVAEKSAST

FP receptor [6] = target: T1, FP receptor; experiment: In vitro test of inhibition of human FP receptor activity (PGF2α-induced calcium flux in FP-expressing CHEM1 cells); type: cell-based; conditions: PGF2α 2 nM, some mean values of multiple determinations
Summary of the method: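 FP antagonism in FP-expressing CHEM1 cells loaded with Fluo-8. Compound preincubated 10 min at 37° C, then receptor stimulated with 2 nM (final) PGF2α in calcium-free Tyrode with 2 mM CaCl2.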

## Cc1c(N2CCCC2)nc2ccc(Br)cc2c1C(=O)NCC(CCC(=O)O)c1ccccc1Cl (single isomer, unassigned; (+)) [Example 35, (+)-5-({[6-bromo-3-methyl-2-(pyrrolidin-1-yl)quinolin-4-yl]carbonyl}amino)-4-(2-chlorophenyl)pentanoic acid]
[1]; 10 and 30 mg/kg po bid, versus silica-treated control
  Hydroxyproline formation and fibrosis (result in words): significant reduction in the hydroxyproline formation and fibrosis

## Cc1c(N2CCCC2)nc2ccc(Br)cc2c1C(=O)NCC(CCC(=O)O)c1ccccc1Cl.Cl (single isomer, unassigned; (+)) [Example 284, (+)-5-({[6-Bromo-3-methyl-2-(pyrrolidin-1-yl)quinolin-4-yl]carbonyl}amino)-4-(2-chlorophenyl)pentanoic acid hydrochloride]
[2]; 2-week study in mice with hepatic fibrosis, p<0.01, two-way ANOVA with Dunnett post-hoc test
  Progression of fibrosis (result in words): significant reduction in the progression of fibrosis
[2]; CCl4 + 100 mg/kg, oral twice daily, 2 weeks, mean ± SD
  Sirius red [% liver area]: 3.51 ± 0.65 % liver area
[3]; 30 mg/kg
  SR/FG positive area [%]: 38.74 ± 9.12%
  αSMA positive area [%]: 25.19 ± 3.23%
  Gene expression CTGF: 105.67 ± 52.33%
  Gene expression Col1α1: 76.70 ± 36.22%
  Gene expression Col3α1: 103.74 ± 37.60%
  Gene expression Col4α1: 71.15 ± 20.20%
  Gene expression IL1-β: 81.91 ± 31.93%
  Gene expression IL-6: 207.04 ± 389.13%
  Gene expression KC: 65.02 ± 15.98%
  Gene expression MCP-1: 93.98 ± 26.32%
  Gene expression TGF-β: 67.57 ± 32.67%
  Gene expression αSMA: 72.97 ± 39.94%
[3]; 60 mg/kg
  SR/FG positive area [%]: 34.66 ± 7.59%
  αSMA positive area [%]: 22.28 ± 4.04%
  Gene expression CTGF: 102.07 ± 26.99%
  Gene expression Col1α1: 38.90 ± 13.11%
  Gene expression Col3α1: 126.15 ± 46.51%
  Gene expression Col4α1: 45.97 ± 8.44%
  Gene expression IL1-β: 112.05 ± 71.38%
  Gene expression IL-6: 494.83 ± 850.76%
  Gene expression KC: 50.69 ± 22.02%
  Gene expression MCP-1: 117.41 ± 38.15%
  Gene expression TGF-β: 31.79 ± 9.06%
  Gene expression αSMA: 51.72 ± 21.33%
[1]; Silica + 10 mg/kg po bid
  Hydroxyproline [ng/lung]: 2341 ± 54.99 (n = 12) ng/lung
[1]; Silica + 30 mg/kg po bid
  Hydroxyproline [ng/lung]: 2185 ± 86.79 (n = 12) ng/lung

## O=C(O)CCC/C=C\C[C@@H]1[C@@H](/C=C/[C@H](O)C2Cc3ccccc3C2)[C@@H](F)C[C@@H]1O [AL-8810]
[4]
  neuroprotective effect: significant neuroprotective effects

## CCCCC[C@H](O)/C=C/[C@H]1C(=O)C[C@H](O)[C@@H]1C/C=C\CCCC(=O)O [PGD2, prostaglandin D2]
FP receptor [5]
  binding affinity to the FP receptor: nanomolar affinities

## CCCCC[C@H](O)/C=C/[C@H]1[C@H](O)CC(=O)[C@@H]1C/C=C\CCCC(=O)O [PGE2, prostaglandin E2]
FP receptor [5]
  binding affinity to the FP receptor: nanomolar affinities

## (−)-5-[({6-Bromo-3-methyl-2-[(^2H10)piperidin-1-yl]quinolin-4-yl}carbonyl)amino]-4-[2-(trifluoromethoxy)phenyl]pentanoic acid [Example 272]
FP receptor [6]
  IC50: 0.85 nM
